Read-outs that look alike come from different tables or passages of the source. Marks after values point to notes of the source that are not given here.
Legend:
[1] = system: mice; assay: Mouse duration of anesthesia (LRR) after tail vein injection; type: in vivo
Procedure: The compounds were dissolved in 22.5% aqueous 2-(hydroxypropyl)-β-cyclodextrin. For compound 28, serial dilutions of a 8 mg/kg stock solution with 0.9% saline were made to obtain the lower doses tested.
At a dose of 8 mg/kg, compound MQ-35 caused LRR of about 3 minutes and at a dose of 16 mg/kg duration of LRR was increased to about 7 minutes.
At 4 mg/kg, LRR induced by KK-122 lasted about 5 minutes and at a dose of 8 mg/kg LRR lasted for about 9 minutes. For all three compounds, the onset of anesthesia was immediate (i.e., less than 30 seconds) and recovery was characterized by a rapid progression over 1-2 minutes from an initial return of leg movement followed by righting and subsequent walking around the cage.

[2] = biological target: picrotoxin binding site on GABAA receptors; assay: [35S]-TBPS displacement (inhibition of [35S]-TBPS binding); details: non-competitive displacement of [35S]-TBPS; ± standard error of the mean
Procedure: The IC50 values for the compounds of the examples as non-competitive displacers of [^35S]-TBPS from the picrotoxin binding site on GABAA receptors are reported in Table 1.
Results presented are from duplicate experiments performed in triplicate. Error limits are calculated as standard error of the mean. Methods used are known in the art (see, e.g., Jiang, et al., Neurosteroid analogues. 9. Conformationally constrained pregnanes: structure-activity studies of 13,24-cyclo-18,21-dinorcholane analogues of the GABA modulatory and anesthetic steroids (3α,5α)- and (3α,5β)-3-hydroxypregnan-20-one. J. Med. Chem. 2003, 46, 5334-5348).

[3] = biological target: T1, rat α1β2γ2L type GABAA receptors expressed in Xenopus laevis oocytes (Rattus norvegicus, UniProt P18508+P62813+P63138, INS375LLRMFSFK); assay: Oocyte electrophysiology: potentiation of chloride currents mediated by 2 μM GABA, and direct gating; type: cell-based; details: ± SEM (N≥4); for ratio of currents measured in the presence/absence of added compound, 0.1 μM: 0.1 μM compound; for ratio of currents measured in the presence/absence of added compound, 0.1 μM / ratio of currents measured in the presence/absence of added compound, 1.0 μM / ratio of currents measured in the presence/absence of added compound, 10 μM: 2 μM GABA; for ratio of currents measured in the presence/absence of added compound, 1.0 μM: 1.0 μM compound; for ratio of currents measured in the presence/absence of added compound, 10 μM: 10 μM compound; for (gating) 10 μM: ratio of compound only current/GABA current: direct current gated by 10 μM compound in the absence of GABA
T1 construct: expressed in transfected cells; host or cells: Xenopus laevis oocytes
T1 sequence (P62813 28-455, stated change not applied): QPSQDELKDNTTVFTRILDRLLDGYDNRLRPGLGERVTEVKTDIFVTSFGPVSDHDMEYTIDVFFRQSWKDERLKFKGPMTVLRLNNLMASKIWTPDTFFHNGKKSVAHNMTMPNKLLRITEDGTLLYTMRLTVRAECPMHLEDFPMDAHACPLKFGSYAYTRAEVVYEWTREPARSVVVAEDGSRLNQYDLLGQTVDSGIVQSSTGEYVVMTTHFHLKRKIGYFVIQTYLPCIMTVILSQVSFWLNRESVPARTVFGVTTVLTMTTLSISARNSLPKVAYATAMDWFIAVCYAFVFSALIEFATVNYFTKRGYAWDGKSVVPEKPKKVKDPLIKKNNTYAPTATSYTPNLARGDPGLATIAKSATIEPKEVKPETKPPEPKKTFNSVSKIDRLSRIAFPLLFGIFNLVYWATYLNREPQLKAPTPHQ
T1 sequence (P63138 26-474, stated change not applied): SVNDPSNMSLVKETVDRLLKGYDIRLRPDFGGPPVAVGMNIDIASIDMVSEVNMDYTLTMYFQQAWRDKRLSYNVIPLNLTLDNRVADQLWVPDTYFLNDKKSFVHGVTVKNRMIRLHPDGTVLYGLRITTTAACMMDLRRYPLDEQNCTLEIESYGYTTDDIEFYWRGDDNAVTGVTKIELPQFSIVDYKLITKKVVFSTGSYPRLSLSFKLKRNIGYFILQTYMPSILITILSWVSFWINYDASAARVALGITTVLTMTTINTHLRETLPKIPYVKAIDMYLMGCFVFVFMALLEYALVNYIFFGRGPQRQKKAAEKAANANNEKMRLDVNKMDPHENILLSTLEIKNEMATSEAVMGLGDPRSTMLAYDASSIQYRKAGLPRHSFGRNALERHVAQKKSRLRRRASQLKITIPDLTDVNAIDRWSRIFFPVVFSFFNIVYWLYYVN
T1 sequence (P18508 with tags, fused parts or gaps INS375LLRMFSFK): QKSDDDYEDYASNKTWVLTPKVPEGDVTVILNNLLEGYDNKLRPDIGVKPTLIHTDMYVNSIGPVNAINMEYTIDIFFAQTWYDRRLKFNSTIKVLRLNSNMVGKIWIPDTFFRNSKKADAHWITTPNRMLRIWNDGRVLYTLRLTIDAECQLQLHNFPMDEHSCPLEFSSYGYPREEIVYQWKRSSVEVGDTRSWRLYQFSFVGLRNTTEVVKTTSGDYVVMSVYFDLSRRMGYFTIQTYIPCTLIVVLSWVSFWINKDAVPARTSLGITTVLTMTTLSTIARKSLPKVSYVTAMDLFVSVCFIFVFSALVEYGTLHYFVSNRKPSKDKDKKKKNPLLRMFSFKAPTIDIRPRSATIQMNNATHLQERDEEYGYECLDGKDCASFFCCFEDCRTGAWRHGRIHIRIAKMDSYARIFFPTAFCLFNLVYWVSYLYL
Procedure: The compounds of the present disclosure were evaluated for the ability to potentiate chloride currents mediated by 2 μM GABA at rat α1β2γ2L type GABAA receptors expressed in Xenopus laevis oocytes and the results are shown in Table 2.
The GABA concentration used for the control response was 2 μM. Each compound was evaluated on at least four different oocytes at the concentrations indicated, and the results reported are the ratio of currents measured in the presence/absence of added compound. Gating represents direct current gated by 10 μM compound in the absence of GABA, and this current is reported as the ratio of compound only current/[…] current. Error limits are calculated as standard error of the mean (N≥4). Receptor expression and whole-cell and single-channel recordings were carried out as described previously (see Jiang, et al., Neurosteroid analogues. 9. Conformationally constrained pregnanes: structure-activity studies of 13,24-cyclo-18,21-dinorcholane analogues of the GABA modulatory and anesthetic steroids (3α,5α)- and (3α,5β)-3-hydroxypregnan-20-one. J. Med. Chem. 2003, 46, 5334-5348).

[4] = system: Tadpole; assay: Tadpole loss of righting (LRR) and loss of swimming (LSR) reflexes; type: in vivo; details: for EC50: ± SEM; for tadpoles that lost LRR / tadpoles that lost LSR: concentration of 3 μM, number of 10 tadpoles
Source text: Table 3 discloses the anesthetic effects of the compounds of the present disclosure. In particular, the anesthetic effect of the compounds of the present disclosure on Loss of Righting Reflex (LRR) and Loss of Swimming Reflex (LSR).
Methods used are known in the art (see, e.g., Jiang, et al., Neurosteroid analogues. 9. Conformationally constrained pregnanes: structure-activity studies of 13,24-cyclo-18,21-dinorcholane analogues of the GABA modulatory and anesthetic steroids (3α,5α)- and (3α,5β)-3-hydroxypregnan-20-one. J. Med. Chem. 2003, 46, 5334-5348). Error limits are calculated as standard error of the mean (N=10 or more animals at each of five or more different concentrations).

[5] = loss of righting reflex, read-out: Tadpole LRR EC50
[6] = loss of swimming reflex, read-out: Tadpole LSR EC50

CC(=O)[C@H]1CC[C@H]2[C@@H]3CC[C@H]4C[C@H](O)CC[C@]4(C)[C@H]3C(=O)C[C@]12C [alphaxalone, reference compound]
duration of anesthesia (LRR) ([1]; 16 mg/kg): about 4 minutes

CO[C@H]1[C@H]2CC[C@@H]3[C@H]4CC(=O)C[C@]4(C)CC[C@H]3[C@]2(C)CC[C@@H]1O [KK-122, (3β,4α,5β,8α,9β,10α,3α,14β)-3-Hydroxy-4-methoxyandrostan-16-one]
IC50 [2]: 83 ± 11 nM
melting point: 198 to 200 °C
ratio of currents measured in the presence/absence of added compound, 0.1 μM [3]: 1.41 ± 0.07
ratio of currents measured in the presence/absence of added compound, 1.0 μM [3]: 6.48 ± 0.40
ratio of currents measured in the presence/absence of added compound, 10 μM [3]: 16.00 ± 2.21
(gating) 10 μM: ratio of compound only current/GABA current [3]: 0.08 ± 0.03
EC50 [4, 5]: 340 ± 400 nM
EC50 [4, 6]: 1730 ± 30 nM
duration of anesthesia (LRR) ([1]; 1 mg/kg): no LRR was observed
duration of anesthesia (LRR) ([1]; 4 mg/kg): about 5 minutes
duration of anesthesia (LRR) ([1]; 8 mg/kg): about 9 minutes
duration of anesthesia (LRR) ([1]; threshold dose of 2 mg/kg): about 1 minute

CC(=O)[C@@H]1C[C@@H]2[C@H]3CC[C@@H]4C[C@@H](O)CC[C@@]4(C)[C@@H]3CC[C@@]2(C)C1 [KK-135, (3β,5β,8α,9β,10α,13α,14β,16α)-16-Acetylandrostan-3-ol]
IC50 [2]: 184 ± 11 nM
melting point: 169 to 172 °C
ratio of currents measured in the presence/absence of added compound, 0.1 μM [3]: 1.17 ± 0.09
ratio of currents measured in the presence/absence of added compound, 1.0 μM [3]: 3.26 ± 0.31
ratio of currents measured in the presence/absence of added compound, 10 μM [3]: 6.21 ± 0.31
(gating) 10 μM: ratio of compound only current/GABA current [3]: −0.04 ± 0.06
tadpoles that lost LRR [4]: 10/10^a
tadpoles that lost LSR [4]: 10/10^a

C[C@@]12CC[C@@H]3[C@H](CC[C@@H]4C[C@@H](O)CC[C@]43C)[C@H]1C[C@@H](C#N)C2 [KK-142, (3β,5β,8α,9β,10α,13α,14β,16α)-3-Hydroxyandrost-16-carbonitrile]
IC50 [2]: 29 ± 3 nM
melting point: 206 to 208 °C
ratio of currents measured in the presence/absence of added compound, 0.1 μM [3]: 2.20 ± 0.20
ratio of currents measured in the presence/absence of added compound, 1.0 μM [3]: 8.83 ± 3.12
ratio of currents measured in the presence/absence of added compound, 10 μM [3]: 13.32 ± 4.54
(gating) 10 μM: ratio of compound only current/GABA current [3]: 0.03 ± 0.01
tadpoles that lost LRR [4]: 10/10^a
tadpoles that lost LSR [4]: 10/10^a

C[C@@]12CC[C@H](O)C[C@@H]1CC[C@H]1[C@H]2CC[C@@]2(C)C=C(C#N)C[C@H]12 [KK-136, (3β,5α,8α,9β,10α,13α,14β)-3-Hydroxyandrost-16-ene-16-carbonitrile]
IC50 [2]: 335 ± 27 nM
melting point: 195 to 197 °C
ratio of currents measured in the presence/absence of added compound, 0.1 μM [3]: 0.98 ± 0.02
ratio of currents measured in the presence/absence of added compound, 1.0 μM [3]: 1.98 ± 0.14
ratio of currents measured in the presence/absence of added compound, 10 μM [3]: 10.04 ± 1.26
(gating) 10 μM: ratio of compound only current/GABA current [3]: 0.29 ± 0.25
EC50 [4, 5]: 480 ± 20 nM
EC50 [4, 6]: 1730 ± 30 nM

C[C@@]12CC[C@H]3[C@@H]4CC[C@H](O)C[C@@H]4CC[C@@H]3[C@H]1CC(=O)C2 [KK-102]
IC50 [2]: 146 ± 18 nM
melting point: 139 to 142 °C
ratio of currents measured in the presence/absence of added compound, 0.1 μM [3]: 1.20 ± 0.02
ratio of currents measured in the presence/absence of added compound, 1.0 μM [3]: 4.23 ± 0.24
ratio of currents measured in the presence/absence of added compound, 10 μM [3]: 13.91 ± 1.38
(gating) 10 μM: ratio of compound only current/GABA current [3]: 0.04 ± 0.0
EC50 [4, 5]: 1210 ± 420 nM
EC50 [4, 6]: 5480 ± 120 nM

CO[C@@H]1C[C@@H]2[C@H]3C[C@H](OC)[C@@H]4C[C@@H](O)CC[C@@]4(C)[C@@H]3CC[C@@]2(C)C1 [MQ-125, (3β,5β,6α,8α,9β,10α,13α,14β,16α)-6,16-Dimethoxyandrostan3-ol]
IC50 [2]: 121 ± 10 nM
melting point: 127 to 129 °C
ratio of currents measured in the presence/absence of added compound, 0.1 μM [3]: 1.19 ± 0.18
ratio of currents measured in the presence/absence of added compound, 1.0 μM [3]: 5.02 ± 0.40
ratio of currents measured in the presence/absence of added compound, 10 μM [3]: 14.08 ± 2.23
(gating) 10 μM: ratio of compound only current/GABA current [3]: 0.43 ± 0.41
tadpoles that lost LRR [4]: 10/10^a
tadpoles that lost LSR [4]: 10/10^a

CO[C@H]1[C@H]2CC[C@H]3[C@@H](CC[C@@]4(C)C(=O)CC[C@H]34)[C@]2(C)CC[C@@H]1O [KK-117, (3β,4α,5β,8α,9β,10α,13α,14β)-3-Hydroxy-4-methoxyandrostan-17-one]
IC50 [2]: 198 ± 25 nM
melting point: 215 to 218 °C
ratio of currents measured in the presence/absence of added compound, 0.1 μM [3]: 1.21 ± 0.02
ratio of currents measured in the presence/absence of added compound, 1.0 μM [3]: 3.67 ± 0.33
ratio of currents measured in the presence/absence of added compound, 10 μM [3]: 12.21 ± 1.26
(gating) 10 μM: ratio of compound only current/GABA current [3]: 0.05 ± 0.03
EC50 [4, 5]: 590 ± 70 nM
EC50 [4, 6]: 2940 nM

C[C@@]12CC[C@@H]3[C@H](CC[C@@H]4C[C@@H](O)CC[C@]43C)[C@H]1CC(=O)C2 [MQ-35, (3β,5β,8α,9β,10α,13α,14β)-3-Hydroxyandrostan-16-one]
IC50 [2]: 81 ± 8 nM
melting point: 152 to 153 °C
ratio of currents measured in the presence/absence of added compound, 0.1 μM [3]: 1.42 ± 0.02
ratio of currents measured in the presence/absence of added compound, 1.0 μM [3]: 7.72 ± 0.39
ratio of currents measured in the presence/absence of added compound, 10 μM [3]: 34.70 ± 1.69
(gating) 10 μM: ratio of compound only current/GABA current [3]: 0.15 ± 0.04
EC50 [4, 5]: 550 ± 90 nM
EC50 [4, 6]: 1730 ± 40 nM
duration of anesthesia (LRR) ([1]; 8 mg/kg): about 3 minutes
duration of anesthesia (LRR) ([1]; 16 mg/kg): about 7 minutes
